Test results reported in US8383647B2, “Quinoline derivative” (Takeda Pharmaceutical Company Limited, priority 2009, dated 2013).

How the values were obtained:
[1] = molecular target: T1, HERG (Homo sapiens, UniProt Q12809); test: Evaluation of HERG inhibitory activity (whole-cell patch clamp, HERG.T.HEK cells); type: cell-based; settings: peak tail current
T1 construct: host or cells: HERG.T.HEK (HEK cells, Geneticin-selected)
Text: MEM medium, MEM nonessential amino acid solution, sodium pyruvate solution and G418 sulfate solution (Geneticin) were purchased from Invitrogen Corporation (Carlsbad, Calif.). Bovine serum albumin (BSA, Fatty Acid Free) was a product of Wako Pure Chemical Industries, Ltd. (Osaka, Japan). Fetal bovine serum (FCS) was a product of Trau Scientific Ltd. (Melbourne, Australia).
As HERG expression cell HERG.T.HEK, the cell obtained from Wisconsin ALUMNI Research Foundation was used. HERG.T.HEK was maintained and passaged at 37° C. in the presence of 5% CO2 using an MEM medium containing 10% FCS, 1 mM MEM nonessential amino acid, 1 mM sodium pyruvate and 500 μg/ml Geneticin.
80-90% confluent cells were collected by a trypsin treatment and plated on an IVF dish (Falcon, Franklin Lakes, N.J.). After 2-3 hr, cells were adhered to a glass electrode (resistance value 2-3 MΩ) filled with an electrode internal fluid (7 mM NaCl, 130 mM KCl, 1 mM MgCl2, 5 mM HEPES, 5 mM EGTA, 5 mM ATP-Na: pH 7.2) while perfusing with an extracellular fluid (137 mM NaCl, 4 mM KCl, 1 mM MgCl2, 1.8 mM CaCl2, 10 mM HEPES, 11 mM dextrose: pH 7.4), using a patch clamp amplifier AXOPATCH 200B (Axon instruments, Foster City, Calif.), whereby formation of whole-cell configuration and stimulation by voltage clamp protocol were performed (holding potential −75 mV, primary voltage 10 mV: 0.5 sec, secondary voltage −40 mV: 0.5 sec, stimulation frequency 5 sec (Example 31 and Example 50) or 10 sec (Comparative Example 1 and Comparative Example 2). A preliminary stimulation was applied and the HERG electric current value (peak tail current) was measured when the electric current waveform was stabilized.
For measurement of the HERG electric current with addition of the test compound, the cells were first perfused with the extracellular fluid and, when the waveform was stabilized, the cells were perfused with an extracellular fluid containing 10 μm of a test compound. When the electric current waveform was stabilized under respective perfuse conditions, the HERG electric current was measured.
The HERG electric current inhibitory rate (%) of the test compound was calculated with the HERG electric current value without addition of the test compound as 100%.

[2] = system: HepG2 cells; test: Evaluation of PLsis (NBD-PE uptake); type: cell-based; settings: 24 hr exposure, relative to 10 μM Amiodarone, maximum value per unit concentration
Description: DMEM medium, L-glutamine, penicillin-streptomycin, pyruvic acid, and N-(7-nitrobenz-2-oxa-1,3-diazol-4-yl)-1,2-hexadecanoyl-sn-glycero-3-phosphoethanolamine triethylammonium salt (NBD-PE) were purchased from Invitrogen Corporation. As bovine serum albumin (BSA), a product of Thermo Trace Ltd. (Melbourne, Australia) was used, and as Amiodarone, a product of ICN (Costa Mesa, Calif.) was used. A test compound was used in the form of a 10 mM DMSO solution.
FBS was added at a final concentration of 5 vol % to DMEM medium supplemented with L-glutamine, pyruvic acid and penicillin-streptomycin and subjected to the experiment. Culture was performed using 5% carbon dioxide gas-95% air as a gas phase in a CO2 incubator at 37° C. HepG2 cells were suspended in a culture medium at 50×10^4 cells/mL, plated in a 96 well plate at 50 μL/well and precultured for 24 hr. After preculture, the culture medium was removed, a culture medium containing 60 μm NBD-PE was added at 50 μL/well, and a culture medium containing 0, 6 μM or 20 μM test compounds were each added at 50 μL/well to HepG2 cells, and the cells were cultured for 24 hr. As a positive control, Amiodarone was used at a final concentration of 10 μM.
After exposure to the test compound for 24 hr, the fluorescence intensity (Ex. 485 nm, Em. 538 nm) of NBD-PE uptaken by the cells was measured by a fluorometer. The measurement value with addition of 0 μM test compound solution was subtracted as a blank, a relative value to the measurement value with addition of 10 μm Amiodarone was calculated, and the maximum value per unit concentration of the test compound was obtained as a phospholipidosis (PLsis) induction potential.

[3] = molecular target: human SLC-1 (Homo sapiens, UniProt Q99705); test: MCH receptor antagonistic activity (inhibitory activity, Experimental Example 1); type: biochemical
human SLC-1, sequence (Q99705 whole entry): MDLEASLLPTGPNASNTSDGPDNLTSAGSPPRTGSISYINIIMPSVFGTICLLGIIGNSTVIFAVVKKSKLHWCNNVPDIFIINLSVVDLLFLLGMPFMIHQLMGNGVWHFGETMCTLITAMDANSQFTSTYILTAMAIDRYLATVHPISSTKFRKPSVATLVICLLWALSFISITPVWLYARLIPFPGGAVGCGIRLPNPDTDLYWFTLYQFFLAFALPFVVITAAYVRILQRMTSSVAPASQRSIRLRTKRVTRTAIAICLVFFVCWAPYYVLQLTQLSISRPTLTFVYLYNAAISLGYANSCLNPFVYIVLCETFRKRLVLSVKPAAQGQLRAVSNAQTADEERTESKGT

[4] = molecular target: rat SLC-1 (Rattus norvegicus, UniProt P97639); test: as above; type: biochemical
rat SLC-1, sequence (P97639 whole entry): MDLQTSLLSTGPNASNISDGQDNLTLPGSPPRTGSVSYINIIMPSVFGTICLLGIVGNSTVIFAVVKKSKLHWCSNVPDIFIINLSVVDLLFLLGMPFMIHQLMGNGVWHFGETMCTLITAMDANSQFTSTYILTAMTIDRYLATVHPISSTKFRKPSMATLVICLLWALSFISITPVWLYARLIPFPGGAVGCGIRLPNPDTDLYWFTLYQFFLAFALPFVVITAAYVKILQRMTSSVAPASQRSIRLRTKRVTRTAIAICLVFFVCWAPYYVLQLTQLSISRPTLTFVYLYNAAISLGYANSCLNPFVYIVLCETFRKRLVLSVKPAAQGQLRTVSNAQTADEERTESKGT

T1 sequence (Q12809 whole entry): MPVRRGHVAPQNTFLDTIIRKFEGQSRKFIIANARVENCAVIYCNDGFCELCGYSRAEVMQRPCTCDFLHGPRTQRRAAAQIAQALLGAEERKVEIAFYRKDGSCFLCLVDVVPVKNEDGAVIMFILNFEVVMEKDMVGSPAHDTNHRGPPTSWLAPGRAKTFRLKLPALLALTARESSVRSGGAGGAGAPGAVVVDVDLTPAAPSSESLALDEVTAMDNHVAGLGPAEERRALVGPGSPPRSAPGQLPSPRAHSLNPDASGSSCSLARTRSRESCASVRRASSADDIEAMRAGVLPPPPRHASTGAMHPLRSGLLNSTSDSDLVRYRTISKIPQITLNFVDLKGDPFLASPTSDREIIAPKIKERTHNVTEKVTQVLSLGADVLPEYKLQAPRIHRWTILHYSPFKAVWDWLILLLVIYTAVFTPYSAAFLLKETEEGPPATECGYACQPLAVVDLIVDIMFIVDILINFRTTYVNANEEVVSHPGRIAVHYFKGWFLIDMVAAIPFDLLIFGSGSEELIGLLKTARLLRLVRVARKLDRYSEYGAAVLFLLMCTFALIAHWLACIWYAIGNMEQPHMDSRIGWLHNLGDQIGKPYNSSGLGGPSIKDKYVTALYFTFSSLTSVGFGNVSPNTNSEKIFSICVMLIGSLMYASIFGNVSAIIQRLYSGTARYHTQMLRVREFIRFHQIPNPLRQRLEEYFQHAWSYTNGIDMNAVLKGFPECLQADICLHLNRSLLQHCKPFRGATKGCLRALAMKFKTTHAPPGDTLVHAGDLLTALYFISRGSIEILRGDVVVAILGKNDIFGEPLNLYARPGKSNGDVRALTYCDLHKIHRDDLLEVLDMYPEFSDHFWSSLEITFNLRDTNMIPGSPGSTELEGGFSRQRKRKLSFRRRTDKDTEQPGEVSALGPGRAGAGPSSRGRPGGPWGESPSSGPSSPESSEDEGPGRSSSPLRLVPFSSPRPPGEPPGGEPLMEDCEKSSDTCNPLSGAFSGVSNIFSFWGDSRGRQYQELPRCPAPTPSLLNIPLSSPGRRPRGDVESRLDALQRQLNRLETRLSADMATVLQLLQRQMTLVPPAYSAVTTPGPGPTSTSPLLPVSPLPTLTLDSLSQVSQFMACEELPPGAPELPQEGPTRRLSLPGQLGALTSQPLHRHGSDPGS

| SMILES | IC50 [3] | IC50 [4] | melting point | HERG electric current inhibitory rate (%) of 10 μM compound [1] | PLsis induction potential [2] |
| --- | --- | --- | --- | --- | --- |
| Cc1c(NC(=O)c2ccc(OCC3CC3)cc2)ccc2cc(CN[C@H]3CC[C@H](O)CC3)cnc12 [Com. Ex. 1, 4-(cyclopropylmethoxy)-N-[3-[[(trans-4-hydroxycyclohexyl)amino]methyl]-8-methylquinolin-7-yl]benzamide, reference compound] | – | – | – | 58% | 23.5 |
| Cc1c(NC(=O)c2ccc(OCC3CC3)cc2)ccc2cc(CNC3CCC(C)(O)CC3)cnc12 (stereo not drawn) [Com. Ex. 2, 4-(cyclopropylmethoxy)-N-[3-[[(trans-4-hydroxy-4-methylcyclohexyl)amino]methyl]-8-methylquinolin-7-yl]benzamide, reference compound] | – | – | – | 44.9% | 27.8 |
| Cc1c(NC(=O)c2ccc(OC[C@@H]3CCCO3)cc2)ccc2cc(CN[C@H]3CCCC[C@@H]3O)cnc12 [Example 47, N-[3-({[(1S,2S)-2-hydroxycyclohexyl]amino}methyl)-8-methylquinolin-7-yl]-4-[(2S)-tetrahydrofuran-2-ylmethoxy]benzamide] | 6.8 nM | 7.9 nM | 157 to 158 °C | – | – |
| Cc1c(NC(=O)c2ccc(OCC3CCOC3)cc2)ccc2cc(CNCC(C)(C)C)cnc12 (stereo not shown) [Example 62, N-(3-{[(2,2-dimethylpropyl)amino]methyl}-8-methylquinolin-7-yl)-4-(tetrahydrofuran-3-ylmethoxy)benzamide] | 2.2 nM | 2.7 nM | 129 °C | – | – |
| Cc1c(NC(=O)c2ccc(OCC3CCOC3)cc2)ccc2cc(CNCC3CCOCC3)cnc12 (stereo not shown) [Example 63, N-(8-methyl-3-{[(tetrahydro-2H-pyran-4-ylmethyl)amino]methyl}quinolin-7-yl)-4-(tetrahydrofuran-3-ylmethoxy)benzamide] | 3.7 nM | 4.5 nM | 122 to 123 °C | – | – |
| Cc1c(NC(=O)c2ccc(OC[C@@H]3CCCO3)cc2F)ccc2cc(CNCC(C)(C)O)cnc12 [Example 67, 2-fluoro-N-(3-{[(2-hydroxy-2-methylpropyl)amino]methyl}-8-methylquinolin-7-yl)-4-[(2S)-tetrahydrofuran-2-ylmethoxy]benzamide] | 7.8 nM | 11 nM | 167 to 168 °C | – | – |
| Cc1c(NC(=O)c2ccc(OC[C@@H]3CCCO3)cc2F)ccc2cc(CNCC(C)(C)C)cnc12 [Example 68, N-(3-{[(2,2-dimethylpropyl)amino]methyl}-8-methylquinolin-7-yl)-2-fluoro-4-[(2S)-tetrahydrofuran-2-ylmethoxy]benzamide] | 3.1 nM | 2.8 nM | 134 to 135 °C | – | – |
| Cc1c(NC(=O)c2ccc(OC[C@@H]3CCCO3)cc2F)ccc2cc(CN[C@H]3CC[C@](C)(O)CC3)cnc12 [Example 69, 2-fluoro-N-(3-{[(trans-4-hydroxy-4-methylcyclohexyl)amino]methyl}-8-methylquinolin-7-yl)-4-[(2S)-tetrahydrofuran-2-ylmethoxy]benzamide] | 6.1 nM | 7.1 nM | 171 to 172 °C | – | – |
| Cc1c(NC(=O)c2ccc(OC[C@@H]3CCCO3)cc2F)ccc2cc(CNCC(C)C)cnc12 [Example 70, 2-fluoro-N-(8-methyl-3-{[(2-methylpropyl)amino]methyl}quinolin-7-yl)-4-[(2S)-tetrahydrofuran-2-ylmethoxy]benzamide] | 2.7 nM | 3.2 nM | 133 to 134 °C | – | – |
| CCCNCc1cnc2c(C)c(NC(=O)c3ccc(OC[C@@H]4CCCO4)cc3F)ccc2c1 [Example 71, 2-fluoro-N-{8-methyl-3-[(propylamino)methyl]quinolin-7-yl}-4-[(2S)-tetrahydrofuran-2-ylmethoxy]benzamide] | 5 nM | 8 nM | 120 to 121 °C | – | – |
| Cc1c(NC(=O)c2ccc(OC[C@@H]3CCCO3)cc2)ccc2cc(CN3CCC(C)(O)CC3)cnc12 [Example 72, N-{3-[(4-hydroxy-4-methylpiperidin-1-yl)methyl]-8-methylquinolin-7-yl}-4-[(2S)-tetrahydrofuran-2-ylmethoxy]benzamide] | 4.5 nM | 4.3 nM | 169 to 174 °C | – | – |

Second part, led by results:

| IC50 [3] | IC50 [4] | melting point | SMILES | HERG electric current inhibitory rate (%) of 10 μM compound [1] | PLsis induction potential [2] |
| --- | --- | --- | --- | --- | --- |
| 9.1 nM | 8.3 nM | 183 to 184 °C | Cc1c(NC(=O)c2ccc(OC[C@@H]3CCCO3)cc2)ccc2cc(CN[C@H]3CC[C@H](O)CC3)cnc12 [Example 48, N-(3-{[(trans-4-hydroxycyclohexyl)amino]methyl}-8-methylquinolin-7-yl)-4-[(2S)-tetrahydrofuran-2-ylmethoxy]benzamide] | – | – |
| 4.8 nM | 7.2 nM | 111 to 113 °C | Cc1c(NC(=O)c2ccc(OC[C@@H]3CCCO3)cc2)ccc2cc(CNCCOC(C)C)cnc12 [Example 49, N-[8-methyl-3-({[2-(1-methylethoxy)ethyl]amino}methyl)quinolin-7-yl]-4-[(2S)-tetrahydrofuran-2-ylmethoxy]benzamide] | – | – |
| 6.5 nM | 9.5 nM | 159 to 161 °C | Cc1c(NC(=O)c2ccc(OC[C@@H]3CCCO3)cc2)ccc2cc(CN[C@H]3CC[C@@](C)(O)CC3)cnc12 [Example 52, N-(3-{[(cis-4-hydroxy-4-methylcyclohexyl)amino]methyl}-8-methylquinolin-7-yl)-4-[(2S)-tetrahydrofuran-2-ylmethoxy]benzamide] | – | – |
| 5.5 nM | 6.1 nM | 113 to 115 °C | CCC(CC)NCc1cnc2c(C)c(NC(=O)c3ccc(OC[C@@H]4CCCO4)cc3)ccc2c1 [Example 54, N-(3-{[(1-ethylpropyl)amino]methyl}-8-methylquinolin-7-yl)-4-[(2S)-tetrahydrofuran-2-ylmethoxy]benzamide] | – | – |
| 6.8 nM | 8.8 nM | 118 to 119 °C | CC[C@@H](C)NCc1cnc2c(C)c(NC(=O)c3ccc(OC[C@@H]4CCCO4)cc3)ccc2c1 [Example 55, N-[8-methyl-3-({[(1R)-1-methylpropyl]amino}methyl)quinolin-7-yl]-4-[(2S)-tetrahydrofuran-2-ylmethoxy]benzamide] | – | – |
| 6.4 nM | 9.1 nM | 122 to 123 °C | CC[C@H](C)NCc1cnc2c(C)c(NC(=O)c3ccc(OC[C@@H]4CCCO4)cc3)ccc2c1 [Example 56, N-[8-methyl-3-({[(1S)-1-methylpropyl]amino}methyl)quinolin-7-yl]-4-[(2S)-tetrahydrofuran-2-ylmethoxy]benzamide] | – | – |
| 9.8 nM | 17 nM | 142 to 144 °C | Cc1c(NC(=O)c2ccc(OC[C@@H]3CCCO3)cc2)ccc2cc(CNC3CCC3)cnc12 [Example 57, N-{3-[(cyclobutylamino)methyl]-8-methylquinolin-7-yl}-4-[(2S)-tetrahydrofuran-2-ylmethoxy]benzamide] | – | – |
| 6.8 nM | 11 nM | 140 to 141 °C | Cc1c(NC(=O)c2ccc(OC[C@@H]3CCCO3)cc2)ccc2cc(CN[C@H](C)C(C)(C)C)cnc12 [Example 58, N-[8-methyl-3-({[(1R)-1,2,2-trimethylpropyl]amino}methyl)quinolin-7-yl]-4-[(2S)-tetrahydrofuran-2-ylmethoxy]benzamide] | – | – |
